Data: patent US7322965B2, “Infection-resistant medical devices” (priority 2002, dated 2008)
≈ marks a conversion by molar mass, not a printed value. Entries after “also recorded” stand apart in the source; their conditions may differ. Like-named read-outs stand apart in the source and are kept apart here. Marks after values point to notes of the source that are not given here.

What was measured:
S. epidermidis UC-20207 = assay: Determination of minimum inhibitory concentration (microdilution); type: cell-based; conditions: Staphylococcus epidermidis, UC20207; S. epidermidis UC-20207; 18 h; read-out: MIC (minimum inhibitory concentration)
S. epidermidis RP62A = assay: as above; type: cell-based; conditions: Staphylococcus epidermidis; S. epidermidis RP62A; 18 h; read-out: MIC (minimum inhibitory concentration)
S. hominis SP-2 = assay: as above; type: cell-based; conditions: Staphylococcus hominis, SP2; S. hominis SP-2; 18 h; read-out: MIC (minimum inhibitory concentration)
S. aureus UC-20205 = assay: Microtiter-plate adherence assay on polystyrene; type: cell-based; conditions: for Adherence Mean OD550: S. aureus UC-20205, 18 h
Protocol: (§1) Briefly, the inoculum was established by the direct colony suspension method using the Prompt™ Inoculation System (Becton Dickinson, Sparks, Md.). The bacteria suspension, which was equal to the turbidity of a 0.5 McFarland standard, was diluted in TSB to a concentration of 1×10^6 colony forming units per ml (CFU/mL). One hundred microliters of the cell suspension was added to flat-bottom polystyrene wells (Corning Costar, Corning, N.Y.) containing 100 μl of TSB, with and without drug. The final inoculum concentration per well was approximately 5×10^5 CFU/mL. The plates were incubated at 37° C. under static conditions in air. At 18 hours (h) post-infection, the optical density of bacterial growth was measured at a wavelength of 595 nm in a microtiter plate reader (Vmax; Molecular Devices, Sunnyvale, Calif.). […] Adherent “sessile” cells then were fixed with 3.7% (v/v) formaldehyde/2% (w/v) sodium acetate and stained with 0.1% (w/v) crystal violet. Excess stain was rinsed off with deionized water and the plates were air-dried for 4 h. The optical density of bacterial adherence was determined at a wavelength of 550 nm. Preliminary studies were performed to determine the optimal wavelengths for measuring growth turbidity and stained adherent cells (data not shown). To compensate for background absorbance, optical density readings from wells treated with sterile medium, fixative and stain as described above were averaged and then subtracted from all test and control wells. Relative inhibition of adherence or growth was expressed by the following equation: (OD of control well−OD of treated well/OD of control well)×100, where OD is the mean optical density of six replicate wells from two separate experiments (three replicates per experiment). Control was defined as infected, drug-free cultures.
(§2) The primary efficacy variable in this study was the measurement of adherent bacterial cells to polystyrene after 18 h of growth. To determine whether statistically significant differences existed between treatment groups (MIC, ½ MIC, and ¼ MIC) compared with the infected-nontreated controls, the Kruskal-Wallis one-way analysis of variance (ANOVA) was applied for each clinical strain. Statistical significance was defined as p-values ≦0.05. An asterisk (*) was placed by all test values less than or equal to the specified significance level.

S. aureus UC-20206 = assay: Microtiter-plate adherence assay on polystyrene; type: cell-based; conditions: for Adherence Mean OD550: S. aureus UC-20206, 18 h
Protocol: as §1, §2

S. epidermidis UC-20208 [1] = assay: Microtiter-plate adherence assay on polystyrene; type: cell-based; conditions: for Adherence Mean OD550: S. epidermidis UC-20208, 18 h
Protocol: as §1, §2

S. hominis SP2 = assay: Microtiter-plate adherence assay on polystyrene, nonadherent reference strain; type: cell-based; conditions: data not shown
Protocol: Briefly, the inoculum was established by the direct colony suspension method using the Prompt™ Inoculation System (Becton Dickinson, Sparks, Md.). The bacteria suspension, which was equal to the turbidity of a 0.5 McFarland standard, was diluted in TSB to a concentration of 1×10^6 colony forming units per ml (CFU/mL). One hundred microliters of the cell suspension was added to flat-bottom polystyrene wells (Corning Costar, Corning, N.Y.) containing 100 μl of TSB, with and without drug. The final inoculum concentration per well was approximately 5×10^5 CFU/mL. The plates were incubated at 37° C. under static conditions in air. At 18 hours (h) post-infection, the optical density of bacterial growth was measured at a wavelength of 595 nm in a microtiter plate reader (Vmax; Molecular Devices, Sunnyvale, Calif.). […] The optical density of bacterial adherence was determined at a wavelength of 550 nm. […] To compensate for background absorbance, optical density readings from wells treated with sterile medium, fixative and stain as described above were averaged and then subtracted from all test and control wells. […]
Reliability of the microtiter-plate adherence assay was assessed with the reference strains S. hominis SP2 (nonadherent) and S. epidermidis RP62A (strongly adherent). The median optical density readings for SP2 and RP62A were 0.059±0.004 and 2.789±0.266, respectively. […]

S. epidermidis UC-20208 [2] = assay: Time course adherence assay (prophylactic and delayed treatment); type: cell-based; conditions: for inhibition at 1 µg/mL / inhibition at 2 µg/mL / inhibition at 4 µg/mL / inhibition at 8 µg/mL: Staphylococcus epidermidis, read-out: Percent inhibition of bacterial adherence relative to controls; for Mean OD550: UC-20208
Protocol: (§3) Drug effects on bacterial adherence were measured 18 hours after treatment initiation using a quantitative spectrophotometric assay.
(§4) Relative inhibition of adherence was expressed by the following equation: (OD of control well−OD of treated well/OD of control well)×100, where OD is the mean optical density of six replicate wells from two separate experiments (three replicates per experiment). Control was defined as infected, drug-free cultures.
(§5) The primary efficacy variable in this study was the measurement of adherent bacteria to polystyrene surfaces after 18 hours to 24 hours of growth. To determine whether statistically significant differences existed between treatments (4×MIC, 2×MIC, MIC, and ½ MIC) compared with the infected-nontreated controls, multiple comparisons according to Dunnett's test (Montgomery, Design and Analysis of Experiments (1991)) were applied for each clinical strain. Differences were considered statistically significant when p<0.05.

[3] = tested on: S. aureus and S. epidermidis strains; assay: Microtiter-plate adherence assay, summary over all strains evaluated; type: cell-based, staphylococci
Protocol: as §1, §2

[4] = tested on: S. epidermidis isolates (UC-20207, UC-20208, and RP62A); assay: Time course adherence assay, summary over three S. epidermidis isolates; type: cell-based; conditions: for mean inhibitory effects on staphylococcal adherence: subtherapeutic (one-half MIC)
Protocol: as §3, §4, §5

[5] = Staphylococcus aureus, UC20205, 18 h, read-out: Adherence % Inhibition
[6] = Staphylococcus aureus, UC20206, 18 h, read-out: Adherence % Inhibition
[7] = Staphylococcus epidermidis, UC20208, 18 h, read-out: Adherence % Inhibition

## CC(=O)NC[C@H]1CN(c2ccc(N3CCOCC3)c(F)c2)C(=O)O1 [Linezolid, (S)-N-[[3-[3-fluoro-4-(4-morpholinyl)phenyl]-2-oxo-5-oxazolidinyl]methyl]acetamide]
S. epidermidis UC-20207
  MIC: 2 mg/L (≈ 5.93 µM)
S. epidermidis RP62A
  MIC: 2 mg/L (≈ 5.93 µM)
S. hominis SP-2
  MIC: 2 mg/L (≈ 5.93 µM)
S. aureus UC-20205; drug 0.5 μg/ml
  Adherence Mean OD550: 0.013 ± 0.007*
S. aureus UC-20205; drug 1.0 μg/ml
  Adherence Mean OD550: 0.005 ± 0.007*
S. aureus UC-20205; drug 2.0 μg/ml
  Adherence Mean OD550: 0.001 ± 0.001*
S. aureus UC-20205; [5]
  inhibition at 0.5 µg/mL: 97.6%
  inhibition at 1 µg/mL: 99%
  inhibition at 2 µg/mL: 99.7%
S. aureus UC-20206; drug 1.0 μg/ml
  Adherence Mean OD550: 0.001 ± 0.002*
S. aureus UC-20206; drug 2.0 μg/ml
  Adherence Mean OD550: 0.002 ± 0.002*
S. aureus UC-20206; drug 4.0 μg/ml
  Adherence Mean OD550: 0.003 ± 0.003*
S. aureus UC-20206; [6]
  inhibition at 1 µg/mL: 99.4%
  inhibition at 2 µg/mL: 99.3%
  inhibition at 4 µg/mL: 98.5%
S. epidermidis UC-20208 [1]; drug 0.5 μg/ml
  Adherence Mean OD550: 1.342 ± 0.791
S. epidermidis UC-20208 [1]; drug 1.0 μg/ml
  Adherence Mean OD550: 0.001 ± 0.002*
S. epidermidis UC-20208 [1]; drug 2.0 μg/ml (MIC)
  Adherence Mean OD550: 0.000 ± 0.001*
S. epidermidis UC-20208 [1]; [7]
  inhibition at 0.5 µg/mL: 26.7%
  inhibition at 1 µg/mL: 99.9%
  inhibition at 2 µg/mL: 100%
S. hominis SP2
  promotion of adherence of the nonadherent strain: Neither linezolid nor vancomycin promoted adherence
S. epidermidis UC-20208 [2]; UC20208, 0 h
  inhibition at 1 µg/mL: 99.9%
  inhibition at 2 µg/mL: 99.9%
  inhibition at 4 µg/mL: 99.8%
  inhibition at 8 µg/mL: 100%
S. epidermidis UC-20208 [2]; UC20208, 2 h
  inhibition at 1 µg/mL: 99.8%
  inhibition at 2 µg/mL: 99.8%
  inhibition at 4 µg/mL: 99.7%
  inhibition at 8 µg/mL: 99.7%
S. epidermidis UC-20208 [2]; UC20208, 4 h
  inhibition at 1 µg/mL: 22.1%
  inhibition at 2 µg/mL: 100%
  inhibition at 4 µg/mL: 100%
  inhibition at 8 µg/mL: 100%
S. epidermidis UC-20208 [2]; UC20208, 6 h
  inhibition at 1 µg/mL: 0%
  inhibition at 2 µg/mL: 0%
  inhibition at 4 µg/mL: 56.8%
  inhibition at 8 µg/mL: 89.1%
S. epidermidis UC-20208 [2]; 1.0 μg/ml, treatment 0 h post-infection
  Mean OD550: 0.001 ± 0.002
S. epidermidis UC-20208 [2]; 1.0 μg/ml, treatment 2 h post-infection
  Mean OD550: 0.003 ± 0.001
S. epidermidis UC-20208 [2]; 1.0 μg/ml, treatment 4 h post-infection
  Mean OD550: 0.856 ± 0.472
S. epidermidis UC-20208 [2]; 1.0 μg/ml, treatment 6 h post-infection
  Mean OD550: 1.127 ± 0.133
S. epidermidis UC-20208 [2]; 2.0 μg/ml (MIC), treatment 0 h post-infection
  Mean OD550: 0.001 ± 0.001
S. epidermidis UC-20208 [2]; 2.0 μg/ml (MIC), treatment 2 h post-infection
  Mean OD550: 0.003 ± 0.000
S. epidermidis UC-20208 [2]; 2.0 μg/ml (MIC), treatment 4 h post-infection
  Mean OD550: 0.000 ± 0.003
S. epidermidis UC-20208 [2]; 2.0 μg/ml (MIC), treatment 6 h post-infection
  Mean OD550: 1.602 ± 0.300
S. epidermidis UC-20208 [2]; 4.0 μg/ml, treatment 0 h post-infection
  Mean OD550: 0.002 ± 0.001
S. epidermidis UC-20208 [2]; 4.0 μg/ml, treatment 2 h post-infection
  Mean OD550: 0.004 ± 0.001
S. epidermidis UC-20208 [2]; 4.0 μg/ml, treatment 4 h post-infection
  Mean OD550: 0.000 ± 0.001
S. epidermidis UC-20208 [2]; 4.0 μg/ml, treatment 6 h post-infection
  Mean OD550: 0.363 ± 0.280
S. epidermidis UC-20208 [2]; 8.0 μg/ml, treatment 0 h post-infection
  Mean OD550: 0.000 ± 0.001
S. epidermidis UC-20208 [2]; 8.0 μg/ml, treatment 2 h post-infection
  Mean OD550: 0.004 ± 0.001
S. epidermidis UC-20208 [2]; 8.0 μg/ml, treatment 4 h post-infection
  Mean OD550: 0.000 ± 0.003
S. epidermidis UC-20208 [2]; 8.0 μg/ml, treatment 6 h post-infection
  Mean OD550: 0.092 ± 0.053
[3]; concentrations less than the MIC, as low as one-fourth the MIC, five strains
  effect on bacterial adhesion at subinhibitory concentrations: surprisingly effective at preventing bacterial adhesion; also recorded: significant inhibitory effects on cell adhesion in all strains evaluated
[3]; one-fourth the MIC, five strains
  preventing adherence to polystyrene: effective in preventing adherence at one-fourth the MIC in all but one strain
[3]; one-half the MIC, all strains evaluated
  percent inhibition of adherence relative to control: greater than or equal to 99.0%
[4]; 4×MIC, 6-hour delay, mean of three strains
  inhibitory effects on adherence: 87.5%±11.7
[4]; 2 h delayed treatment, mean of three strains
  mean inhibitory effects on staphylococcal adherence: 99.1%±1.4
[4]; 4 h delayed treatment, mean of three strains
  mean inhibitory effects on staphylococcal adherence: 63.5%±39.2
[4]; therapeutic levels (≧MIC), 2- and 4-hour deferred treatments
  anti-adhesion activity: potent anti-adhesion activity
